Among the data in patent EP0183129A1, “Quinolonecarboxylic acid derivatives” (KYORIN PHARMACEUTICAL CO., LTD., priority 1984, dated 1986) are MIC and ED50 values, retold here.

Structures are written as SMILES. Converted amounts (≈) assume the structure as drawn.

Assay [1] relates to P. aeruginosa IID 1210. Kind of assay: In vitro antibacterial activity, MIC (standard strain). The class given is cell-based. As to conditions: Pseudomonas aeruginosa, IID1210; P. aeruginosa IID 1210; 10^6 cells/ml; standard strain; read-out: MIC.
Assay [2] has as its system S. faecalis IID 682. The assay is described as above. The class given is cell-based. The conditions noted are these: Enterococcus faecalis, IID682; S. faecalis IID 682; 10^6 cells/ml; standard strain; read-out: MIC.
The subject of assay [3] is S. pyogenes 4372. Kind of assay: In vitro antibacterial activity, MIC (clinical isolates). As to conditions: Streptococcus pyogenes; S. pyogenes 4372; 10^6 cells/ml; clinical isolate; read-out: MIC. The class given is cell-based.
Assay [4] relates to Alcaligenes faecalis 0104002. Kind of assay: In vitro antibacterial activity, MIC (standard strain). The class given is cell-based. The conditions noted are these: Alcaligenes faecalis, 0104002, Alcaligenes faecalis 0104002; 10^6 cells/ml; standard strain; read-out: MIC.
For assay [5], the system named is S. epidermidis IID 866. Described as above. The class given is cell-based. As to conditions: Staphylococcus epidermidis, IID866, S. epidermidis IID 866; 10^6 cells/ml; standard strain; read-out: MIC.
The test system of assay [6] is Shigella sonnei IID 969. The assay is described as above. The conditions noted are these: IID969, 10^6 cells/ml. The class given is cell-based. On the procedure: Experiment-1 In vitro antibacterial activity
The in vitro antibacterial activity against gram-positive and gram-negative bacteria has been investivated.
The minimum inhibitory concentration (MIC) was determined in accordance with the method recommended by Japan Society of Chemotherapy.

Assay [7] deals with Bacteroides fragilis GM 7000. The assay is described as above. The class given is cell-based. As to conditions: GM7000; Bacteroides fragilis GM 7000; 10^6 cells/ml; standard strain; read-out: MIC.
For assay [8], the system named is S. aureus IID 670 (Terajima). The assay is described as above. The class given is cell-based, Staphylococcus aureus. The conditions noted are these: Staphylococcus aureus, IID670, S. aureus IID 670 (Terajima); 10^6 cells/ml; standard strain; read-out: MIC.
In assay [9] the test system is Morganella morganii IID 602. The assay is described as above. As to conditions: IID602; Morganella morganii IID 602; 10^6 cells/ml; standard strain; read-out: MIC. The class given is cell-based.
Assay [10] concerns Bacillus subtilis PCI 219. Described as above. The conditions noted are these: PCI219; Bacillus subtilis PCI 219; 10^6 cells/ml; standard strain; read-out: MIC. The class given is cell-based.
In assay [11] the test system is Clostridium perfringens KYA 13123. Kind of assay: microbe, parasite or virus in culture. The class given is cell-based. As to conditions: KYA13123.
Assay [12] deals with S. agalactiae 4470. Kind of assay: In vitro antibacterial activity, MIC (clinical isolates). The conditions noted are these: Streptococcus agalactiae; S. agalactiae 4470; 10^6 cells/ml; clinical isolate; read-out: MIC. The class given is cell-based.
For assay [13], the system named is S. pneumoniae 2054. Described as above. The conditions noted are these: Streptococcus pneumoniae; S. pneumoniae 2054; 10^6 cells/ml; clinical isolate; read-out: MIC. The class given is cell-based.
Assay [14] has as its system E. coli ML 4707. Kind of assay: In vitro antibacterial activity, MIC (standard strain). The conditions noted are these: Escherichia coli, ML4707; E. coli ML 4707; 10^6 cells/ml; standard strain; read-out: MIC. The class given is cell-based.
For assay [15], the system named is E. coli ATCC 10536. The description is as above. The class given is cell-based. The conditions noted are these: Escherichia coli, ATCC10536; E. coli ATCC 10536; 10^6 cells/ml; standard strain; read-out: MIC.
Assay [16] deals with S. pyogenes 3130. Kind of assay: In vitro antibacterial activity, MIC (clinical isolates). The class given is cell-based. The conditions noted are these: Streptococcus pyogenes, read-out: MIC.
The subject of assay [17] is Staphylococcus aureus 209 P. In words: In vitro antibacterial activity, MIC (standard strain). The class given is cell-based. As to conditions: Staphylococcus aureus 209 P; 10^6 cells/ml; standard strain; read-out: MIC.
The subject of assay [18] is P. aeruginosa IFO 12689. The assay is described as above. The class given is cell-based, Pseudomonas aeruginosa. The conditions noted are these: Pseudomonas aeruginosa, IFO12689; P. aeruginosa IFO 12689; 10^6 cells/ml; standard strain; read-out: MIC.
For assay [19], the system named is B. fragilis 25285. Described as above. The class given is cell-based, Bacteroides fragilis. As to conditions: Bacteroides fragilis, 25285, B. fragilis 25285; 10^6 cells/ml; standard strain; read-out: MIC.
Assay [20] relates to Citrobacter freundii IID 976. Described as above. The class given is cell-based. As to conditions: IID976; Citrobacter freundii IID 976; 10^6 cells/ml; standard strain; read-out: MIC.
For assay [21], the system named is Enterobacter cloacae IID 977. The description is as above. The class given is cell-based. The conditions noted are these: Enterobacter cloacae, IID977, Enterobacter cloacae IID 977; 10^6 cells/ml; standard strain; read-out: MIC.
Assay [22] has as its system S. pneumoniae 3227. Kind of assay: In vitro antibacterial activity, MIC (clinical isolates). The class given is cell-based. As to conditions: Streptococcus pneumoniae; S. pneumoniae 3227; 10^6 cells/ml; clinical isolate; read-out: MIC.
Assay [23] deals with Fusobacterium varium KYA 8501. Kind of assay: In vitro antibacterial activity, MIC (standard strain). The class given is cell-based. As to conditions: Fusobacterium varium, KYA8501, Fusobacterium varium KYA 8501; 10^6 cells/ml; standard strain; read-out: MIC.
Assay [24] deals with M. pneumoniae Mac. Kind of assay: In vitro antibacterial activity against Mycoplasma, MIC. The class given is cell-based. The conditions noted are these: Mycoplasmoides pneumoniae, 120 h; M. pneumoniae Mac.; no visible growth after incubation for 5 days; read-out: MIC. An excerpt:
Experiment-3 In vitro antibacterial activity against Mycoplasma

In assay [25] the test system is S. pneumoniae S-4288. Kind of assay: In vivo antibacterial activity against systemic infection in mice. The arrangement: species or system mice (ICR-S). As to conditions: Streptococcus pneumoniae, S4288; mice (ICR-S); oral, an hour after intraperitoneal infection; challenge dose 7.5 x 10^4 ~ 4.8 x 10^6 cfu/mouse; read-out: ED50 S. pneumoniae S-4288. On the procedure:
(§1) Experiment-2 In vivo antibacterial activity against systemic infection in mice (ICR-S)
(§2) The infections were produced by intraperitoneal injection of a suspension of the bacterial culture corresponding to the germ studied. The products were administered orally at an hour after the infection.

Assay [26] has as its system S. aureus Smith. The assay is described as above. Also noted: species or system mice (ICR-S). The conditions noted are these: Staphylococcus aureus, po, mice (ICR-S), an hour after intraperitoneal infection, challenge dose 6.0 x 10^5 cfu/mouse, read-out: ED50 S. aureus Smith. On the procedure: as §1, §2

Regarding `CN(C)CC1CCN(c2c(F)cc3c(=O)c(C(=O)O)cn(C4CC4)c3c2Cl)C1` (stereo not drawn) [Example 20, 8-Chloro-1-cyclopropyl-6-fluoro-1,4-dihydro-7-(3-dimethylaminomethyl-l-pyrrolidinyl)-4-oxo-3-quinolinecarboxylic acid], the MIC was 1.56 µg/mL (≈ 3.82 µM) in assay [1]; 0.1 µg/mL (≈ 0.245 µM) in [2]; 0.1 µg/mL (≈ 0.245 µM) in assay [3]; 0.39 µg/mL (≈ 0.956 µM) in [4]; 0.05 µg/mL (≈ 0.123 µM) in [5]; 0.05 µg/mL (≈ 0.123 µM) in assay [6]. The MIC in assay [7] was determined as 0.1 µg/mL (≈ 0.245 µM); in assay [8], 0.05 µg/mL (≈ 0.123 µM); in assay [9] it was 0.2 µg/mL (≈ 0.49 µM); in [10] it was 0.025 µg/mL (≈ 0.0613 µM); in assay [11], 0.1 µg/mL (≈ 0.245 µM); in assay [12] it was 0.1 µg/mL (≈ 0.245 µM). The MIC worked out at 0.1 µg/mL (≈ 0.245 µM) in assay [13]; 0.05 µg/mL (≈ 0.123 µM) in assay [14]; 0.025 µg/mL (≈ 0.0613 µM) in assay [15]; 0.05 µg/mL (≈ 0.123 µM) in [16]; 0.025 µg/mL (≈ 0.0613 µM) in assay [17]; 3.13 µg/mL (≈ 7.67 µM) in assay [18]. Further, the MIC in assay [19] is not above 0.05 µg/mL; in assay [20], 0.05 µg/mL (≈ 0.123 µM); in assay [21], 0.1 µg/mL (≈ 0.245 µM); in assay [22], 0.1 µg/mL (≈ 0.245 µM); in assay [23], 0.78 µg/mL (≈ 1.91 µM).
Consider `CN(C)CC1CCN(c2c(F)cc3c(=O)c(C(=O)O)cn(C4CC4)c3c2F)C1` (stereo not drawn) [Example 21, 1-Cyclopropyl-6,8-difluoro-1,4-dihydro-7-(3-dimethylaminomethyl-1-pyrrolidinyl)-4-oxo-3-quinolinecarboxylic acid], for which the MIC was found to be 3.13 µg/mL (≈ 8 µM) in [1]; 0.2 µg/mL (≈ 0.511 µM) in assay [2]; 0.2 µg/mL (≈ 0.511 µM) in [3]; 0.78 µg/mL (≈ 1.99 µM) in [4]; 0.05 µg/mL (≈ 0.128 µM) in assay [5]; 0.05 µg/mL (≈ 0.128 µM) in assay [6]. Further, the MIC in assay [7] is 0.39 µg/mL (≈ 0.996 µM); in assay [8], 0.05 µg/mL (≈ 0.128 µM); in assay [9] it was 0.2 µg/mL (≈ 0.511 µM); in assay [10], 0.05 µg/mL (≈ 0.128 µM); in [11], 0.2 µg/mL (≈ 0.511 µM); in assay [12], 0.2 µg/mL (≈ 0.511 µM). Further, the MIC in assay [13] was 0.2 µg/mL (≈ 0.511 µM); in assay [14], 0.05 µg/mL (≈ 0.128 µM); in assay [15], 0.05 µg/mL (≈ 0.128 µM); in assay [16] it was 0.1 µg/mL (≈ 0.255 µM); in assay [17], 0.05 µg/mL (≈ 0.128 µM); in assay [18], 3.13 µg/mL (≈ 8 µM). For the same molecule, the MIC in [19] was determined as 0.2 µg/mL (≈ 0.511 µM); in assay [20], 0.05 µg/mL (≈ 0.128 µM); in assay [21] it was 0.2 µg/mL (≈ 0.511 µM); in [22] it was 0.2 µg/mL (≈ 0.511 µM); in assay [23] it was 3.13 µg/mL (≈ 8 µM).
The term ED50 denotes the dose that gives a 50% effect, or the effect in half of the subjects. Take `CCNCC1CCN(c2c(F)cc3c(=O)c(C(=O)O)cn(CC)c3c2F)C1` (stereo not drawn) [Ref.1, 1-Ethyl-7-(3-ethylaminomethyl-1-pyrrolidinyl)-6,8-difluoro-1,4-dihydro-4-oxo-3-quinolinecarboxylic acid, reference compound]: the MIC came to 12.5 µg/mL (≈ 32.9 µM) in [1]; 0.2 µg/mL (≈ 0.527 µM) in assay [2]; 0.2 µg/mL (≈ 0.527 µM) in [3]; 12.5 µg/mL (≈ 32.9 µM) in assay [4]; 0.1 µg/mL (≈ 0.264 µM) in [5]; 0.1 µg/mL (≈ 0.264 µM) in assay [6]. For the same molecule, the MIC in assay [7] worked out at 12.5 µg/mL (≈ 32.9 µM); in assay [8], 0.1 µg/mL (≈ 0.264 µM); in [9] it was 0.78 µg/mL (≈ 2.06 µM); in assay [10] it was 0.05 µg/mL (≈ 0.132 µM); in assay [11], 1.56 µg/mL (≈ 4.11 µM); in assay [12] it was 0.39 µg/mL (≈ 1.03 µM). Further, the MIC in [13] was 0.39 µg/mL (≈ 1.03 µM); in assay [14] it was 0.1 µg/mL (≈ 0.264 µM); in assay [15], 0.1 µg/mL (≈ 0.264 µM); in [16], 0.2 µg/mL (≈ 0.527 µM); in assay [24] it was 0.39 µg/mL (≈ 1.03 µM); in [17] it was 0.05 µg/mL (≈ 0.132 µM). For the same molecule, the MIC in assay [18] came to 6.25 µg/mL (≈ 16.5 µM); in assay [19], 6.25 µg/mL (≈ 16.5 µM); in assay [20] it was 0.2 µg/mL (≈ 0.527 µM); in assay [21], 0.2 µg/mL (≈ 0.527 µM); in [22] it was 0.39 µg/mL (≈ 1.03 µM); in assay [23], 6.25 µg/mL (≈ 16.5 µM). Also, the ED50 came out at 62.2 mg/kg in assay [25] and 5 mg/kg in assay [26].
